Here are results for nine compounds from patent US20090304825A1, “ESTROGENIC EXTRACTS FOR USE IN TREATING VAGINAL AND VULVAR ATROPHY” (Bionovo, Inc., priority 2008, published 2009).

The subject of data set [1] is either receptor (ERα, ERβ). Briefly: Antagonistic effect on estrogen receptors (method not described). In kind it is cell-based.
Data set [2] has as its target estrogen receptor beta (ERβ) (Homo sapiens, UniProt Q92731). Nature of the data set: Estrogen receptor subtype transcriptional activation (studies, method not described). In kind it is cell-based. The conditions noted are these: "Studies have shown".
Data set [3] deals with T1, ERβ (Homo sapiens, UniProt Q92731). The conditions noted are these: in the presence of ERβ.
Data set [4] deals with TNF-RE tkLuc. Nature of the data set: Antiestrogen effect on TNF-RE tkLuc. In kind it is cell-based. The conditions noted are these: for effect on the repression induced by E2: TNF-RE tkLuc; for activation of TNF-RE tkLuc: antiestrogens, in contrast to E2. An excerpt:
[…]. […] […].

Data set [5] relates to both estrogen receptor subtypes. Briefly: Binding to estrogen receptor subtypes (method not described). The conditions noted are these: "Studies have shown".
Data set [6] deals with T1, ERβ. Nature of the data set: ERE-tk-Luc activation in U2OS osteosarcoma cells co-transfected with ERβ. In kind it is cell-based. Also on record: expressed in transfected cells; host or cells: U2OS osteosarcoma cells. An excerpt: FIGS. 1A-1C. […] (Amarathaceae).
For data set [7] the following is noted: several small randomized trials; cited from earlier work.
Data set [8] has as its system oopherectomized mice. Nature of the data set: Intra-vaginal administration to oopherectomized mice, vaginal and endometrial histology. In kind it is in vivo. From the text:
The glands form back to back without intervening stroma. […] In one area, the glands arise in what appears to be a polyp with a broad stalk and thick fibrovascular core.

Chain of estrogen receptor beta (ERβ) (Q92731 whole entry): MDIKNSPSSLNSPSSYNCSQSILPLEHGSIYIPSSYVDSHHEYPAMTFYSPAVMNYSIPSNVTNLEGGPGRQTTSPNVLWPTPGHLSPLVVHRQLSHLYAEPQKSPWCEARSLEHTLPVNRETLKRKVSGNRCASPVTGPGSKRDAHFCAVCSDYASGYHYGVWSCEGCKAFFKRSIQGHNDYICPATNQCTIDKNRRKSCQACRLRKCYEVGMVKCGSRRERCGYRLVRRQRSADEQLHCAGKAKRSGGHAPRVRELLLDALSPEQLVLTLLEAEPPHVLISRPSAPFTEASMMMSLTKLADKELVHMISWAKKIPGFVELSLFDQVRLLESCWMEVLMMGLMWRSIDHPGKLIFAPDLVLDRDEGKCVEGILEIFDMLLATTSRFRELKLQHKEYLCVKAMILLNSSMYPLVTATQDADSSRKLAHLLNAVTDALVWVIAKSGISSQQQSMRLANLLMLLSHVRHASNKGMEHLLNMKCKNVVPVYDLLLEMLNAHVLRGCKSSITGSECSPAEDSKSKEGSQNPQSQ
T1 sequence (Q92731 whole entry): as above

As for `COc1ccc(-c2coc3cc(O)ccc3c2=O)cc1O` [Calycosin], in data set [1], the “antagonistic effect on either receptor” value is “does not have an antagonistic effect on either receptor”. Besides, the “ER subtype transcriptional activation” value in data set [2] was “ERβ selective transcriptional activation”.
As for `C[C@]12CC[C@@H]3c4ccc(O)cc4CC[C@H]3[C@@H]1CC[C@@H]2O` [E2, estradiol], the “repression of TNF-α activation of TNF-RE tkLuc” value in data set [3] is reported as 60-80%.
Consider `C[C@]12CC[C@@H]3c4ccc(O)cc4C[C@@H](CCCCCCCCC[S+]([O-])CCCC(F)(F)C(F)(F)F)[C@H]3[C@@H]1CC[C@@H]2O` (some centres unmarked) [ICI 182, 780], for which, in data set [4], the “effect on the repression induced by E2” value is recorded as “abolished the repression induced by E2” and the “activation of TNF-RE tkLuc” value is listed as 2 fold.
As for `C=CC(/C=C\c1ccc(O)cc1)c1ccc(O)cc1` (centres unmarked) [Nyasol], the “binding affinity to estrogen receptor subtypes” value in data set [5] was “binds with equal affinity to both estrogen receptor subtypes”. Besides, in data set [1], the “antagonistic effect on either receptor” value is on record as “does not have an antagonistic effect on either receptor”. The “activation of ERE-tk-Luc relative to estradiol (E2)” value in data set [6] (compared with 10 nM E2) is given as “activation equivalent to 10 nM estradiol”. Besides, in data set [6] (raloxifene (Ral), tamoxifen (Tam), b208 also ICI 182, 780), the “activation in the presence of ER antagonists” value was “blocked the activation”. In data set [2], the “ER subtype transcriptional activation” value was “ERβ transcriptional activation only”.
`COc1c(O)cc2c(=O)c3c(oc2c1O)oc1c(O)cccc13` [TCIF, tetracyclic isoflavone]: in data set [1], the “antagonistic effect on either receptor” value is “does not have an antagonistic effect on either receptor”. The “ER subtype transcriptional activation” value in data set [2] is on record as “estrogen receptor beta (ERβ) selective transcriptional activation”.
In the case of `Oc1ccc2c(c1)CC[C@H](c1ccccc1)[C@@H]2c1ccc(OCCN2CCCC2)cc1` [lasofoxifene], the “vaginal maturation indices and vaginal pH relative to placebo” value in data set [7] was “improvements in vaginal maturation indices and vaginal pH”.
As to `O=C(c1ccc(OCCN2CCCCC2)cc1)c1c(-c2ccc(O)cc2)sc2cc(O)ccc12` [raloxifene], in data set [4], the “effect on the repression induced by E2” value is “abolished the repression induced by E2” and the “activation of TNF-RE tkLuc” value was 2 fold. Moreover, the “antagonist effect on the activation by herbal extracts and active ingredients in VG101” value in data set [6] (ERE-tk-Luc) is given as “blocked the activation”.
`CC/C(=C(\c1ccccc1)c1ccc(OCCN(C)C)cc1)c1ccccc1` [tamoxifen]: in data set [4], the “effect on the repression induced by E2” value is on record as “abolished the repression induced by E2” and the “activation of TNF-RE tkLuc” value is given as 2 fold.
For estrogen, in data set [8] (mouse model, compared to controls), the endometrium histology entry is “endomyometrium (the equivalent of complex atypical hyperplasia in women, worrisome for in situ carcinoma)”. In addition, the vaginal epithelium histology result in data set [8] (oopherectomized mice, intra-vaginal, VG101 0.5 mg/day for 10 days) was “squamous epithelium with hyperkeratosis”.
